Measured values: ChEMBL document CHEMBL3137667, “[Drug-induced liver injury; fourteenth updated edition of the bibliographic database of liver injuries and related drugs]” (Gastroenterol Clin Biol, 2004)

Legend:
[1] = human
[2] = human, serum, 4383 h
[3] = human; remark: listed apart in the source
[4] = Highest frequency of moderate liver toxicity observed during clinical trials, expressed as a percentage. [column '% BIOL' in source]; conditions: human
[5] = human; remark: listed apart in the source
[6] = human; remark: listed apart in the source
[7] = human, serum
[8] = Highest frequency of acute liver toxicity observed during clinical trials, expressed as a percentage. [column '% AIGUE' in source]; conditions: human
[9] = human; remark: listed apart in the source
[10] = human, serum; remark: listed apart in the source
[11] = human; remark: listed apart in the source
[12] = Times to onset, minimal and maximal, observed in the indexed observations. [column 'DELAI' in source]; conditions: human
[13] = human; remark: listed apart in the source
[14] = Proposed mechanism(s) of liver damage. [column 'MEC' in source]; conditions: human
[15] = human; remark: listed apart in the source
[16] = human; remark: listed apart in the source
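Throughout, for Hepatotoxicity (association with vascular disease): count of indexed literature references reporting vascular liver injury in humans, e.g. peliosis hepatitis, hepatic veno-occlusive disease or Budd-Chiari syndrome.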
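Throughout, for Hepatotoxicity (benign tumour): value is a count of indexed literature references citing a benign tumour confirmed by histopathology.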
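Throughout, for Hepatotoxicity (choleostasis): human cholestatic liver injury, shown by histopathology or by peak ALT or AST elevation over alkaline phosphatase ratio below 2, value counts indexed literature reports.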
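Throughout, for Hepatotoxicity (chronic liver disease): chronic liver injury confirmed by histopathology or persistently raised serum aminotransferase activity beyond 6 months, value given as the count of indexed literature references.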
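Throughout, for Hepatotoxicity (cirrhosis): value is a count of indexed literature references reporting cirrhosis confirmed by histopathology.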
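Throughout, for Hepatotoxicity (cytolytic): human cytolytic liver injury, shown by histopathology or by a ratio above 5 of peak ALT or AST elevation to alkaline phosphatase elevation, value counts indexed references.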
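Throughout, for Hepatotoxicity (granulomatous hepatitis): value is a count of indexed literature references reporting granulomatous liver disease confirmed by histopathology.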
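Throughout, for Hepatotoxicity (malignant tumour): malignant tumour confirmed by histopathology, value gives the count of indexed literature references reporting it.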
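Throughout, for Hepatotoxicity (severe hepatitis): human clinical data: severe hepatitis, meaning potentially life-threatening liver failure or clinically observed cases, the value counts how many indexed literature references report it.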
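Throughout, for Hepatotoxicity (steatosis): steatosis confirmed by histopathology, value is the count of indexed references.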

Row | Compound | Hepatotoxicity (cytolytic) [1] | Hepatotoxicity (chronic liver disease) [2] | Hepatotoxicity (cirrhosis) [3] | Hepatotoxicity (moderate) [4] [%] | Hepatotoxicity (malignant tumour) [5] | Hepatotoxicity (severe hepatitis) [6] | Hepatotoxicity (acute) [7] | Hepatotoxicity (acute) [8] [%] | Hepatotoxicity (granulomatous hepatitis) [9] | Hepatotoxicity (moderate) [10] | Hepatotoxicity (steatosis) [11] | Hepatotoxicity (time to onset) [12] | Hepatotoxicity (benign tumour) [13] | Hepatotoxicity (mechanism) [14] | Hepatotoxicity (choleostasis) [15] | Hepatotoxicity (association with vascular disease) [16]
1 | CN1CCN(CCCN2c3ccccc3Sc3ccc(S(=O)(=O)N(C)C)cc32)CC1 [THIOPROPERAZINE] | 2 | 0 | 0 | 0 | 0 | 0 | 2 | 0 | 0 | 0 | 0 | 24 days - > 1 month | 0 | Allergic | 1 | 0
2 | C[C@@H]1C[C@H]2[C@@H]3CCC4=CC(=O)C=C[C@]4(C)C3=CC[C@]2(C)[C@H]1C(=O)CN1CCN(c2cc(N3CCCC3)nc(N3CCCC3)n2)CC1 [TIRILAZAD] | 0 | 0 | 0 | 8.5 | 0 | 0 | 0 | 0 | 0 | 2 | 0 | 3 days - 10 days | 0 | Dose-dependant | 0 | 0
3 | Cc1ccc(O)c([C@H](CCN(C(C)C)C(C)C)c2ccccc2)c1 [TOLTERODINE] | 1 | 0 | 0 | 0 | 0 | 0 | 1 | 0 | 0 | 0 | 0 | 18 days | 0 | Allergic | 1 | 0
4 | O=c1n(CCCN2CCN(c3cccc(Cl)c3)CC2)nc2ccccn12 [TRAZODONE] | 5 | 1 | 0 | 0 | 0 | 1 | 8 | 0 | 0 | 0 | 0 | 5 days - 18 months | 0 | Allergic | 3 | 0
5 | CCC(COC(=O)c1cc(OC)c(OC)c(OC)c1)(c1ccccc1)N(C)C (centres undefined) [TRIMEBUTINE] | 1 | 0 | 0 | 0 | 0 | 0 | 1 | 0 | 0 | 0 | 0 | 2 weeks | 0 | Allergic | 0 | 0
6 | CN1C(=O)OC(C)(C)C1=O [TRIMETHADIONE] | 1 | 0 | 0 | 0 | 0 | 0 | 3 | 0 | 0 | 1 | 0 | 2 weeks - 1 month | 0 | Allergic | 0 | 0
7 | CC(C)[C@H](N)C(=O)OCCOCn1cnc2c(=O)[nH]c(N)nc21 [VALACYCLOVIR] | 1 | 0 | 0 | 17.6 | 0 | 0 | 1 | 0 | 0 | 2 | 0 | 10 days | 0 | Dose-dependant | 1 | 0
8 | COc1ccc(C(CN(C)C)C2(O)CCCCC2)cc1 (centres undefined) [VENLAFAXINE] | 3 | 0 | 0 | 2.8 | 0 | 0 | 4 | 0 | 0 | 3 | 0 | 12 days - 6 months | 0 | Allergic | 1 | 0
9 | CCOC(=O)CN[C@@H](C(=O)N1CC[C@H]1C(=O)NCc1ccc(/C(N)=N\O)cc1)C1CCCCC1 [XIMELAGATRAN] | 0 | 0 | 0 | 9.8 | 0 | 0 | 3 | 6.8 | 0 | 9 | 0 | 1 month - 6 months | 0 | Dose-dependant | 0 | 0
10 | CC(c1cc2ccccc2s1)N(O)C(N)=O (centres undefined) [ZILEUTON] | 1 | 0 | 0 | 16.7 | 0 | 0 | 2 | 0 | 0 | 8 | 0 | 24 days | 0 | Dose-dependant | 0 | 0
11 | Cc1cc(CC(=O)O)n(C)c1C(=O)c1ccc(Cl)cc1 [ZOMEPIRAC] | 0 | 0 | 0 | 1.7 | 0 | 0 | 0 | 0 | 0 | 2 | 0 | 2 weeks | 0 | Allergic | 0 | 0
12 | BCG VACCINE | 2 | 0 | 0 | 10 | 0 | 0 | 6 | 0.9 | 32 | 7 | 0 | 1 hour - 2 years | 0 | Allergic | 2 | 0
13 | CARBOPLATIN | 0 | 0 | 0 | 27 | 0 | 1 | 1 | 6.1 | 0 | 5 | 0 | 1 week | 0 | Dose-dependant | 1 | 5
14 | NADROPARIN CALCIUM | 0 | 0 | 0 | 66.7 | 0 | 0 | 0 | 0 | 0 | 8 | 0 | 5 days - 1 week | 0 | Dose-dependant | 0 | 0
